# Measured values as given in patent publication US12564588B2, “HECT E3 ubiquitin liagase inhibitors and uses thereof” (Northwestern University, priority 2021, dated 2026).
# Experiments:
# [1] = biological target: T1, recombinant UBE3A HECT domain (Homo sapiens, UniProt Q05086); assay: fluorescence thermal shift analysis (FTS); format: binding; conditions: 0.5 uM UBE3A, Hepes buffer pH7.5, Tm shifted to lower temperature
# T1 construct: a truncated UBE3A protein (residues 495-852 of isoform 1) using E. coli; made in house; host or cells: E. coli
# T1 sequence (Q05086 518-875): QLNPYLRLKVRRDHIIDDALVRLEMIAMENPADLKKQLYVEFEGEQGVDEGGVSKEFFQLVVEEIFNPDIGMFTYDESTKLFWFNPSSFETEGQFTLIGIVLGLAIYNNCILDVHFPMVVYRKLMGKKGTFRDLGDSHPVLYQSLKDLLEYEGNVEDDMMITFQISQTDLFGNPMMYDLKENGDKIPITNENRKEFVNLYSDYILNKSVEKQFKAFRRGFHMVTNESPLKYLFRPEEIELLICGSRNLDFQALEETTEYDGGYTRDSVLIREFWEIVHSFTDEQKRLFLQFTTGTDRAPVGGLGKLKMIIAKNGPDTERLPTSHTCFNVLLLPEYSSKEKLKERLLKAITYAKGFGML
# Source text: FIG. 6A-B. Fluorescence thermal shift analysis of recombinant UBE3A HECT domain with the compound #3-1. (A) Melting curves of recombinant UBE3A HECT domain with multiple concentrations of #3-1 show the melting temperature Tm was shifted to lower temperature progressively with increase in #3-1 concentration. The rise of pre-transition background reading indicates destabilizing of the protein by the small molecule inhibitor, which is consists with the decrease of Tm by the compound. (B) Plot of normalized melting curves with respect to compound concentrations. The compound #3-1 shifts the melting temperature in a significant fashion, indicating specific binding. For example, the Tm is shifted 2.5 degree by 15 uM #3-1 and 5.1 degree by 25 uM #3-1 from the reference value. The test was done with 0.5 uM UBE3A in Hepes buffer (20 mM Hepes, 150 mM NaCl, pH7.5).
# To verify the physical interaction between the HECT domain of UBE3A and the identified compounds and also develop a high throughput assay for further screening, we have developed a fluorescence thermal shift analysis (FTS). we have prepared a truncated UBE3A protein (residues 495-852 of isoform 1) using E. coli and performed preliminary FTS test (FIG. 6). […] Small molecule binding affects protein thermal stability, therefore can be detected through a shift in protein's thermal denaturation (melting) temperature (Tm).
# UBE3A [2] = biological target: T2, UBE3A (Homo sapiens, UniProt Q05086); assay: in vitro ubiquitination assay (polyubiquitination of S5A); format: biochemical; conditions: for IC50: S5A polyubiquitination, varying concentrations, estimated / preliminary; for inhibition of UBE3A-mediated polyubiquitination of S5A: compound at 100 μM, western/immunoblot readout
# T2 sequence (Q05086 24-875 limits assumed): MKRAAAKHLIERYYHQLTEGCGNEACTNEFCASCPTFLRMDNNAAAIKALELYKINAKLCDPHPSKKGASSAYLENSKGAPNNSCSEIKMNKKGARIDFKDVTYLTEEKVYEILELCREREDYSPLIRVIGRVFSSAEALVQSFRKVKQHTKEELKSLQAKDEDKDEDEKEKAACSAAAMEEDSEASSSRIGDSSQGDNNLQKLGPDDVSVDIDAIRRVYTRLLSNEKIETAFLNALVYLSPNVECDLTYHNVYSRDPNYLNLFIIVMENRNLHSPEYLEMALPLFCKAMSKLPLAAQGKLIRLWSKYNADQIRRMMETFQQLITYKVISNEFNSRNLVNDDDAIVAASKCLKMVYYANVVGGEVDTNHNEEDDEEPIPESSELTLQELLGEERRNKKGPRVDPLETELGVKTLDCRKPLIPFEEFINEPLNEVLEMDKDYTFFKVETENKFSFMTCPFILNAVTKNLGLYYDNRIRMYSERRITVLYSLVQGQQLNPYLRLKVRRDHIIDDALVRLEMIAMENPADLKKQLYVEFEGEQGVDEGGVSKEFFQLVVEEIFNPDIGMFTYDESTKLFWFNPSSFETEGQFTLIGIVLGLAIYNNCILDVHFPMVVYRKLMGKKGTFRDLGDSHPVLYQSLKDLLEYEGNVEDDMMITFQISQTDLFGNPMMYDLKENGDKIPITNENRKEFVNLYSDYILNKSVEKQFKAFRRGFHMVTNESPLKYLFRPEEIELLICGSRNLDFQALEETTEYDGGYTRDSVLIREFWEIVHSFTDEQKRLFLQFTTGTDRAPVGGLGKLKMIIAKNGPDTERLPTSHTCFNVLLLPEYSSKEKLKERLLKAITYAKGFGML
# Description: FIG. 3A-B. Identification of a potential UBE3A inhibitor compound by in vitro ubiquitination assay. (A). Purified UBA1 (E1), UBE2L3 (E2) and UBE3A (E3) were pre-incubated with each compound at 100 uM, followed by incubation with purified ubiquitin (Ub) and S5A in the presence of ATP. […] NC, negative control without active UBE3A; PC, positive control with active UBE3A but with no small molecule. (B). Structure of #3 compound (Zinc 23375107).
# FIG. 4A-B. Screening for compounds that are structurally analogous to #3 compound and could bind to the druggable hotspot of the UBE3A HECT domain. Left panel (A): Purified UBA1 (E1), UBE2L3 (E2) and UBE3A (E3) were pre-incubated with structural analogs of #3 compound at 100 μM, followed by incubation with purified ubiquitin (Ub) and S5A in the presence of ATP.
# FIG. 5A-B. Inhibition of the E3 activity of UBE3A by various concentrations of compound #3 and #3-1. The UBE3A activity was assayed by the in vitro ubiquitination assay using S5A as a substrate and the indicated concentrations of compound #3 (A) or #3-1 (B). The polyubiquitinated forms of S5A were quantified by western analysis.
# We purchased 35 compounds among the 46 hits identified by the initial virtual screen, and tested their abilities to modulate the ubiquitin ligase activity of UBE3A. The in vitro ubiquitination assay was developed using purified ubiquitin (Ub), Uba1 (E1), UbcH7/UBE2L3 (E2), UBE3A (E3), and S5A/Angiocidin/PSMD4 (substrate), as a modification of our previously reported assay (19). The purchased compounds were dissolved in DMSO to generate a stock solution at 10 mM, and then their effects on UBE3A activity were tested by adding each compound at a final concentration of 100 μM. E1, E2 and E3 enzymes were first pre-incubated at 37° C. for 30 min in a buffer containing MgCl2, ATP and each compound. Subsequently, ubiquitin and S5A were added to the reaction and incubated for 60 more minutes. Samples were then analyzed by SDS-PAGE and immunoblotting, and polyubiquitination of the substrate S5A was determined as specific appearance of forms of anti-S5A immunoreactivity at higher molecular weights.
# HeLa cells = assay: cytotoxicity in HPV-positive cervical cancer cells (alamarBlue cell viability); format: cell-based; conditions: Homo sapiens, 72 hrs incubation
# Description: FIG. 7. Cytotoxicity of the hit compound #3-1 in HPV-positive cervical cancer cells. HPV18-positive human cervical cancer HeLa cells were incubated for 72 hrs with the compound #3-1 at the indicated concentrations, followed by determination of cell viability by the alamarBlue™ HS Cell Viability Reagent (Thermo). Data are shown as means±SEM, and the EC50 is estimated to be 30 μM.
# We have recently tested whether the compound #3.1 exert any cytotoxic action in HPV-positive cancer cells. Human cervical carcinoma HeLa cells are a widely used HPV18-positive cell lines. We incubated HeLa cells with the compound #3.1 at various concentrations for 72 hours and determined viability of the cells (FIG. 7). This study has shown that the compound #3.1 exerts cytotoxicity in a dose-dependent manner with EC50 at 30 μM.
# UBE3A [3] = biological target: T2, UBE3A; conditions: blocks UBE3A oligomerization by substituting Phe727; cited from earlier work
Tm shift from the reference value ([1]; 15 uM compound) [degree],Tm shift from the reference value ([1]; 25 uM compound) [degree],IC50 (UBE3A [2]) [µM],inhibition of UBE3A-mediated polyubiquitination of S5A (UBE3A [2]; listed as #3.1),Structure (SMILES),inhibition of UBE3A-mediated polyubiquitination of S5A (UBE3A [2]),EC50 (HeLa cells) [µM],Ki (UBE3A [3]) [µM],inhibition of UBE3A-mediated polyubiquitination of S5A (UBE3A [2]; listed as Zinc 23375107)
2.5,5.1,~10,inhibited formation of PolyUb-S5A,"COc1ccc(CNCc2cccc(C)c2)c(OCC(O)CN2CCN(C)CC2)c1 (stereo not shown) [#3-1, 1-(5-methoxy-2-{[(3-methylbenzyl)amino]methyl}phenoxy)-3-(4-methyl-1-piperazinyl)-2-propanol]",capable of inhibiting the UBE3A-mediated polyubiquitination of S5A substrate,30,–,–
–,–,–,–,CC(=O)N[C@@H](Cc1ccccc1)C(=O)O [N-acetyl phenylalanine],–,–,12000,–
–,–,~100,–,"COc1ccc(CNCC2CCOCC2)c(OCC(O)CN2CCN(C)CC2)c1 (stereo not shown) [#3, 1-(5-methoxy-2-{[(tetrahydro-2H-pyran-4-ylmethyl)amino]methyl}phenoxy)-3-(4-methyl-1-piperazinyl)-2-propanol]",inhibited formation of PolyUb-S5A,–,–,significantly inhibits polyubiquitination of S5A
